Assay results published in US20050042354A1, “Antiradicals and fat compositions, foods, drinks, drugs or feeds containing the antiradicals” (priority 2001, published 2005).

Experiment: Trolox relative activity in ORAC method (antiradical activity in serum)
Type: biochemical, human
Settings: for Trolox relative activity: ORAC method, human blood serum, 60-μM 4-vinyl-2,6-dimethoxyphenol, 300-μM α-tocopherol
Experimental: 2) Trolox Relative Activity in ORAC Method
10 μl of a test substance in a designated concentration, or
6-hydroxy-2,5,7,8-tetramethylchroman-2-carboxylic acid (Trolox) solution is added to 10 μl of 200-fold diluted solution of human blood serum. Then, 180 μl of 3.73-mg/l β-phycoerythrin (β-PE) is added, and the mixture is preheated at 37° C. for 1 min. 10 μl of 80-mM 2,2′-azobis(2-amidinopropane)-dihydrochloride (AAPH) is then added, and the reaction is started at 37° C. For the dilution of the serum or reagents added, phosphate buffer (75 mM, pH 7.0) is used. As a control, this phosphate buffer is used in place of the test substance. Fluorescence intensity (Ex: 540 nm, Em: 565 nm) of the reactant is measured every 2 min after the start of the reaction, and the relationship between the fluorescence intensity (y-axis) and the time x-axis) is plotted on a graph. The area (S) enclosed by the obtained curve, x and y axes is calculated for the test substance, Trolox and the control. The antiradical activity of the test substance in the serum is calculated as a Trolox relative activity using the following equation. Trolox relative activity=(Test substance's S−Control's S)/(Trolox's S−Control's S)×(Trolox's concentration/Test substance's concentration) In this testing system, AAPH generates peroxyradicals, and the peroxyradicals oxidize the substrate β-PE, which results in a reaction to eliminate fluorescence of β-PE. Trolox is a derivative of water-soluble vitamin E, and is used as a standard substance of the antioxidation reaction in this testing system. These reaction substrate and standard substance are those used in an oxygen radical absorbance capacity (ORAC) method. The ORAC method is widely used to obtain antioxydation and antiradical activities of biological samples and natural materials as values relative to those of a standard substance, in an easy and accurate manner. (5) Rancimat Test

Row | Structure (SMILES) | Trolox relative activity | Trolox relative activity in serum relative to α-tocopherol (in serum)
1 | C=Cc1cc(OC)c(O)c(OC)c1 [Example 7, 4-vinyl-2,6-dimethoxyphenol] | 0.58 | approximately 7 folds
2 | Cc1c(C)c2c(c(C)c1O)CC[C@@](C)(CCC[C@H](C)CCC[C@H](C)CCCC(C)C)O2 [compound 1, α-tocopherol, reference compound] | 0.08 | 
